# Reference: US9040523B2, “Antifungal 5,6-dihydro-4H-pyrrolo[1,2-α][1,4]-benzodiazepines and 6H-pyrrolo[1,2-α][1,4]benzodiazepines substituted with benzene derivatives” (JANSSEN PHARMACEUTICA NV, priority 2010, dated 2015)
# Test: Plasma protein binding assay (rapid equilibrium device)
# Type: in vitro ADME
# Settings: guinea pig plasma, equilibrium dialysis 4 h at 37 °C, read-out: fraction bound (converted)
# Method: Plasma was freshly prepared by centrifugation of guinea pig blood for 10 min at 1900 g in K3-EDTA (Ethylenediaminetetraacetic acid) coated tubes. The plasma protein binding of compounds was assessed at 5 μM concentrations as described by Van Liemp et al. 2010 (Van Liemp S, Morrison D, Sysmans L, Nelis P & Mortishire-Smith R (2010). Development and Validation of a Higher-Throughput Equilibrium Dialysis Assay for Plasma Protein Binding. Journal of the Association for Laboratory Automation, 2010, in press) using a rapid equilibrium device (RED). Briefly, guinea pig plasma was mixed with 5 μM test compound and then applied to the RED. Equilibrium was achieved after 4 h incubation at 37° C. Compound concentrations in the buffer and plasma compartment of the device were measured by LC-MS/MS.
smiles,measurement,value
"CC(=O)c1ccc(C2=NCc3cccc(Cl)c3-n3cccc32)cc1 [Compound 15, 1-[4-(10-chloro-6H-pyrrolo[1,2-a][1,4]benzodiazepin-4-yl)phenyl]-ethanone]","fraction unbound at 4 h, 5 μM",0.0152
